Experiment [1] is filed under the species Rattus norvegicus. Briefly: animal or person. Conditions: Wistar, po, read-out: INH.
Description: Antithyroid activity in L-T4-induced Wistar albino rat model of hyperthyroidism assessed as reduction in T3 level at 10 mg/kg, po qd post 12 days of L-T4 challenge measured after 15 days in presence of [125I]-T3 by RIA
For experiment [2], the species on record is Rattus norvegicus. In words: animal or person. Conditions: Wistar, po, read-out: INH. This is another data set of the same source.
Description: Antithyroid activity in L-T4-induced Wistar albino rat model of hyperthyroidism assessed as reduction in T4 level at 10 mg/kg, po qd post 12 days of L-T4 challenge measured after 15 days in presence of [125I]-T4 by RIA
The species entered for experiment [3] is Rattus norvegicus. Briefly: animal or person. Conditions: Wistar, po, read-out: INH. This is another data set of the same source.
Description: Antithyroid activity in L-T4-induced Wistar albino rat model of hyperthyroidism assessed as inhibition of hepatic 5'-monodeiodinase 1 activity by measuring reduction in T3 level using T4 as substrate at 10 mg/kg, po qd post 12 days of L-T4 challenge measured after 15 days in presence of [125I]-T3 by RIA
The subject of experiment [4] is Rattus norvegicus. Briefly: Antithyroid activity in L-T4-induced Wistar albino rat model of hyperthyroidism assessed as reduction in T3 level at 20 mg/kg, po qd post 12 days of L-T4 challenge measured after 15 days in presence of [125I]-T3 by RIA. It counts as functional.
The test system of experiment [5] is Rattus norvegicus. Briefly: Antithyroid activity in L-T4-induced Wistar albino rat model of hyperthyroidism assessed as serum T3 level at 10 mg/kg, po qd post 12 days of L-T4 challenge measured after 15 days in presence of [125I]-T3 by RIA (reference value: 2.31 +/- 0.53 ng/ml). In kind it is functional.
Experiment [6] deals with Rattus norvegicus. In words: Antithyroid activity in L-T4-induced Wistar albino rat model of hyperthyroidism assessed as inhibition of hepatic 5'-monodeiodinase 1 activity by measuring reduction in T3 level using T4 as substrate at 20 mg/kg, po qd post 12 days of L-T4 challenge measured after 15 days in presence of [125I]-T3 by RIA. In kind it is functional.
Experiment [7] relates to Rattus norvegicus. Briefly: Antioxidant activity in L-T4-induced Wistar albino rat model of hyperthyroidism assessed as lipid peroxidation level by measuring MDA formation per mg protein at 10 mg/kg, po qd post 12 days of L-T4 challenge measured after 15 days by TBARS assay (reference value: 1.34 +/- 0.19 nM/hr). In kind it is functional.
The subject of experiment [8] is Rattus norvegicus. Briefly: Antioxidant activity in L-T4-induced Wistar albino rat model of hyperthyroidism assessed as lipid peroxidation level by measuring MDA formation per mg protein at 20 mg/kg, po qd post 12 days of L-T4 challenge measured after 15 days by TBARS assay (reference value: 1.34 +/- 0.19 nM/hr). It counts as functional.
For experiment [9], the system named is Rattus norvegicus. Briefly: Antithyroid activity in L-T4-induced Wistar albino rat model of hyperthyroidism assessed as serum T4 level at 30 mg/kg, po qd post 12 days of L-T4 challenge measured after 15 days in presence of [125I]-T4 by RIA (reference value: 92.14 +/- 3.45 ng/ml). It counts as functional.
Experiment [10] has as its system Rattus norvegicus. In words: Antithyroid activity in L-T4-induced Wistar albino rat model of hyperthyroidism assessed as serum T3 level at 30 mg/kg, po qd post 12 days of L-T4 challenge measured after 15 days in presence of [125I]-T3 by RIA (reference value: 2.31 +/- 0.53 ng/ml). It counts as functional.
The subject of experiment [11] is Rattus norvegicus. Briefly: Antithyroid activity in L-T4-induced Wistar albino rat model of hyperthyroidism assessed as serum T3 level at 20 mg/kg, po qd post 12 days of L-T4 challenge measured after 15 days in presence of [125I]-T3 by RIA (reference value: 2.31 +/- 0.53 ng/ml). It counts as functional.
Experiment [12] concerns Rattus norvegicus. Briefly: Antithyroid activity in L-T4-induced Wistar albino rat model of hyperthyroidism assessed as inhibition of hepatic 5'-monodeiodinase 1 activity using T4 as substrate at 20 mg/kg, po qd post 12 days of L-T4 challenge measured after 15 days in presence of [125I]-T3 by RIA. In kind it is functional, organism-based.
Experiment [13] has as its system Rattus norvegicus. In words: Antioxidant activity in L-T4-induced Wistar albino rat model of hyperthyroidism assessed as increase in catalase activity by measuring H2O2 utilization per mg protein at 20 mg/kg, po qd administered post 12 days of L-T4 challenge measured every 5 secs for 30 secs on day 28 by spectrophotometric method. It counts as functional, organism-based.

Experiment [14] deals with Rattus norvegicus. Briefly: Antithyroid activity in L-T4-induced Wistar albino rat model of hyperthyroidism assessed as decrease in body weight loss at 20 mg/kg, po qd post 12 days of L-T4 challenge measured after 15 days. It counts as functional, organism-based.
In experiment [15] the test system is Rattus norvegicus. Briefly: Antioxidant activity in L-T4-induced Wistar albino rat model of hyperthyroidism assessed as increase in superoxide dismutase activity by measuring pyrogallol oxidization per mg protein at 20 mg/kg, po qd administered post 12 days of L-T4 challenge measured on day 28. In kind it is functional, organism-based.
In experiment [16] the test system is Rattus norvegicus. In words: Antioxidant activity in L-T4-induced Wistar albino rat model of hyperthyroidism assessed as lipid peroxidation level by measuring MDA formation per mg protein at 30 mg/kg, po qd post 12 days of L-T4 challenge measured after 15 days by TBARS assay (reference value: 1.34 +/- 0.19 nM/hr). In kind it is functional.
Experiment [17] has as its system Rattus norvegicus. Briefly: Antithyroid activity in L-T4-induced Wistar albino rat model of hyperthyroidism assessed as reduction in glucose-6-phosphatase activity at 20 mg/kg, po qd post 12 days of L-T4 challenge measured after 15 days. It counts as functional, organism-based.
Experiment [18] concerns Rattus norvegicus. In words: Antioxidant activity in L-T4-induced Wistar albino rat model of hyperthyroidism assessed as reduction in total GSH content per mg of protein at 20 mg/kg, po qd administered post 12 days of L-T4 challenge measured after 15 days by Ellman's method. In kind it is functional, organism-based.
In experiment [19] the test system is Rattus norvegicus. Briefly: Antithyroid activity in L-T4-induced Wistar albino rat model of hyperthyroidism assessed as serum T4 level at 10 mg/kg, po qd post 12 days of L-T4 challenge measured after 15 days in presence of [125I]-T4 by RIA (reference value: 92.14 +/- 3.45 ng/ml). It counts as functional.
For experiment [20], the system named is Rattus norvegicus. In words: Antithyroid activity in L-T4-induced Wistar albino rat model of hyperthyroidism assessed as reduction in T4 level at 20 mg/kg, po qd post 12 days of L-T4 challenge measured after 15 days in presence of [125I]-T4 by RIA. In kind it is functional.
Experiment [21] concerns Rattus norvegicus. In words: Antithyroid activity in L-T4-induced Wistar albino rat model of hyperthyroidism assessed as serum T4 level at 20 mg/kg, po qd post 12 days of L-T4 challenge measured after 15 days in presence of [125I]-T4 by RIA (reference value: 92.14 +/- 3.45 ng/ml). It counts as functional.

We go through two compounds from ChEMBL document CHEMBL4431367, “Role of a gitogenin-type steroidal saponin (3-O-β-d-glucopyranosyl (1→2)-β-d-glucopyranosyl (1→4)-β-d-galactopyranoside-25R,5α-spirostane-2α,3β-diol), isolated from the leaves of Malvastrum coromandelianum in regulating thyrotoxicosis in rats” (2016).

The source made the active and inactive calls. No cut-off for these calls is given here.

With `CCCc1cc(=O)[nH]c(=S)[nH]1` [PROPYLTHIOURACIL], the inhibition in vivo at 10 mg/kg in the experiment filed under Rattus norvegicus [1] was 56.5%; in the experiment listed under Rattus norvegicus [2] it was 81%; in the experiment listed under Rattus norvegicus [3], 59%.

Regarding `C[C@@H]1CC[C@@]2(OC1)O[C@H]1C[C@H]3[C@@H]4CC[C@H]5C[C@@H](O[C@@H]6O[C@H](CO)[C@H](O)[C@H](O[C@@H]7O[C@H](CO)[C@@H](O)[C@H](O)[C@H]7O[C@@H]7O[C@H](CO)[C@@H](O)[C@H](O)[C@H]7O)[C@H]6O)[C@H](O)C[C@]5(C)[C@H]4CC[C@]3(C)[C@H]1[C@@H]2C`, the results for the inhibition in vivo at 20 mg/kg in the experiment with Rattus norvegicus [4], with Rattus norvegicus [6] and in the experiment on Rattus norvegicus [20] were 56%, 75.1% and 88.8%, respectively. Moreover, the Activity is 1.91 ng/mL with Rattus norvegicus [5]; 0.871 nM/h in the experiment on Rattus norvegicus [7]; 0.312 nM/h in the experiment with Rattus norvegicus [8]; 49.85 ng/mL with Rattus norvegicus [9]; 0.99 ng/mL with Rattus norvegicus [10]; 0.31 ng/mL in the experiment on Rattus norvegicus [11]. Further, the Activity with Rattus norvegicus [16] turned out to be 0.976 nM/h; in the experiment with Rattus norvegicus [19], 79.81 ng/mL; in the experiment on Rattus norvegicus [21] it was 38.7 ng/mL. Also, in the experiment on Rattus norvegicus [12], the inhibition entry is “Active”. Besides, the result with Rattus norvegicus [13], in the experiment with Rattus norvegicus [14], with Rattus norvegicus [15], in the experiment with Rattus norvegicus [17] and in the experiment with Rattus norvegicus [18] was Active.
